This is an account of results in patent US11434330B2, “Polyrotaxanes bearing mixed cyclodextrin species and uses thereof” (Purdue Research Foundation, priority 2015, dated 2022).

Where only a bound is given, the exact number is not on record here.

For series [1] the following is noted: room temperature, in water; cited from earlier work.
Series [2] concerns Niemann-Pick C1-deficient (npc1−/−) fibroblasts. In words: Cholesterol mobilization (filipin staining) in npc1−/− fibroblasts. In kind it is cell-based. The following applies: 6 h after treatment, total β-CD concentration 25 μM. How it is done:
PR carrying an increasing percentage of SBE-β-CD were administered to Niemann-Pick C1-deficient (npc1−/−) fibroblasts to examine their ability to mobilize cholesterol from sites of aberrant accumulation. Each PR family member, generated with a 0%, 30%, 50%, 60%, or 100% SBE-β-CD feed ratio, was administered at a total β-CD concentration of 25 μM and compared to administration of 25 μM SBE-β-CD or HP-β-CD monomers as controls. Comparisons were made at equivalent β-CD concentrations in these experiments, such that each PR construct carrying 10 copies of β-CD was administered at a 10-fold lower molar concentration than for the β-CD monomer controls, so that any apparent differences in cholesterol mobilization could be attributed to the PR agent (a type of β-CD prodrug) rather than the total drug concentration added to the cells.
HP-β-CD and SBE-β-CD monomers decreased the average filipin staining in npc1−/− fibroblasts to approximately 75% of the untreated control levels after 6 h. PR comprised of 100% HP-β-CD and 100% SBE-β-CD performed equivalently, each decreasing filipin staining to ˜78% of control. PRs carrying 30:70 SBE-β-CD:HP-β-CD ratio decreased fluorescence to ˜65% of the untreated group.

For another series, the system named is npc1^−/− mice. As to conditions: subcutaneous injection, 4.0 mg/kg of body weight; cited from earlier work.
The conditions of series [3]: within 24 h; cited from earlier work.
Series [4] can be described thus: Fixed-field relaxivity measurement at 7 T. It counts as physicochemical. The following applies: 7 T Bruker BioSpec; 23° C.; 0.05 to 1.0 mM Gd in water. The protocol:
A fixed field measurement of relaxivity was also performed on aqueous solutions of the polyrotaxane contrast agents in the range of 0.05 to 1.0 mM using a 7 T ([…]) Bruker BioSpec scanner at 23° C. The relaxivity r1 and r2 were determined by plotting the inverse longitudinal (1/T1) and transversal (1/T2) relaxation times, respectively, as a function of Gd concentrations.
Relaxivity Measurements. The longitudinal and transversal relaxation rate of the contrast agents and J774 macrophage cells were measured using a 7 T Bruker BioSpec scanner (Bindley Bioscience Center, West Lafayette, Ind.) 47/30 equipped with a Bruker Biospin MRI GmbH volume coil, 86 mm ID, operating at 300 MHz at 23° C. (RES 300 1 H 112/086 QNS TO AD). […] T1 and T2 values were measured using inversion recovery sequence and multi-slice-multi-echo (MSME) sequence respectively. […] The parameters used are as followed. r1: Repetition times, TE=50.72, 100, 350, 750, 1250, 2500, 3500, and 5000 ms, echo time, TE=22.22 ms, FOV=10×10 mm^2, matrix=128×128, slice thickness=1.0 mm, acquisition number=1. r2: TR=2000 ms, TE=15, 30, 45, 60, 75, 90, 105 ms, FOV=20×20 mm^2, matrix=128×128, slice thickness=1 mm, acquisition number=1. r1 and r2 values were determined by as the slopes of the lines for the plot of 1/T1 and 1/T2 against Gd concentrations, respectively, using the same ROI.

A short description of series [5]: In vivo MRI contrast enhancement in Balb/C mice. The following applies: i.v., 3D T1-weighted MRI. The protocol:
In Vivo MRI Contrast Enhancement of Gd^3+—HP-β-CD/SBE-β-CD-PRs. To investigate the MR contrast enhancement and the circulation fate in vivo of the polyrotaxanes, 3D T1-weighted MR images of Balb/C mice after intra-venous injection were acquired with 7 T Bruker small animal scanner before injection and 10, 20, 35, 50, and 60 min post injection. The tissue contrast enhancement of the compounds has different fates dependent on the threading efficiency, molecular weight, size and surface charge of each contrast agent. […] As expected, DOTAREM® was completely eliminated within 20 min, a typical trend commonly observed for small contrast agents.
To quantify the contrast enhancements, the contrast signal-to-noise ratio (CNR) was calculated from regions of interest (ROIs) carefully drawn in the cross-section images of heart, liver, and kidney obtained from the 2D T1-weighted scans. There was insignificant signal enhancement in all these tissues (FIG. 4). […]
In Vivo MR Imaging. […] To quantify the changes in tissues signal intensity, regions of interest (ROIs) were drawn in images of different organs obtained from the 2D T1-weighted scans and ParaVision software was used to evaluate the mean intensities. The contrast-to-noise ratio (CNR) was calculated for the tissues using the following equation: […]

Another series has as its system J774 macrophage cells. The series can be described thus: Cellular uptake by MR relaxation of lysed cells. The following applies: 0.1 mM Gd, 12 h at 37° C., serum free media, 7 T. In kind it is cell-based. The protocol: Cellular Uptake Studies. Since macromolecular constructs such as polyrotaxanes can trigger the innate immune system (monocytes, macrophages, dendritic cells) in vivo, their uptake of the polyrotaxane contrast was evaluated by macrophages using the MR imaging modality. In addition, one can take advantage of the biological properties of these materials to image macrophages in human diseases including cancer, atherosclerosis, myocardial infarction, diabetes and other conditions. Macrophages are known to play an important role in host system defense leading to the detrimental fate of most nanomaterials. […] Based on these reports, cellular uptake in J774 macrophages of the polyrotaxane contrast agents was assessed. […] T1 and T2 values from the lysed cells contained in 300 μL eppendorf tubes were measured using an inversion recovery sequence at 7 T and the inverse of spin-lattice (1/T1) and spin-spin (1/T2) relaxation times were evaluated. […]
Cellular Uptake Studies. […] These cells were then collected and analyzed using reverse spin echo scanning on Bruker 7 T Biospect small animal scanner (Bindley Bioscience Center, West Lafayette, Ind.). The relaxations T1 and T2 values were collected from samples images recorded from the cells contained in 300 μL plastic containers using the scanning conditions similarly to those employed for In vitro imaging of polyrotaxane solutions.

“2-Hydroxypropyl-β-cyclodextrin [HP-β-CD]”: the water solubility in series [1] is 650 mg/mL. Also, in series [2], the “filipin staining, % of untreated control” value is “approximately 75%”. Moreover, in the series on npc1^−/− mice, the “effect on survival, hepatopathology, neuropathology” value was “improvement in their survival, hepatopathology, and neuropathology”. The “fraction cleared from the bloodstream” value in series [3] is more than 90%.

As to “4-sulfobutylether-β-cyclodextrin [SBE-β-CD]”, in series [2], the “filipin staining, % of untreated control” value was “approximately 75%”.

As to `CNC[C@H](O)[C@@H](O)[C@H](O)[C@H](O)CO.O=C([O-])CN1CCN(CC(=O)[O-])CCN(CC(=O)O)CCN(CC(=O)[O-])CC1.[Gd+3]` [DOTAREM], in series [4], the “r1 (mM^−1s^−1) (1/T1)” value was 3.8 mM⁻¹ s⁻¹. For the same molecule, the “time to complete elimination” value in series [5] was not above 20 min. Moreover, the “cellular uptake (1/T1, 1/T2 of lysed cells)” value in the series on J774 macrophage cells is given as “did not show any endocytosis”.
